Results published in patent US10646483B2, “Crystal form of imidazolone type compounds, and preparation method, pharmaceutical composition and use thereof” (Foreland Pharma Co., Ltd., priority 2016, dated 2020).
Read-outs that look alike come from different tables or passages of the source.

Legend:
[1] = Solid stability test of Crystal Form I (drug stability test box: high temperature, high humidity, strong illumination); type: physicochemical
Source text: A small amount of Crystal Form I of Compound 1 hydrochloride monohydrate of Example I-1 was taken and placed in a drug stability test box. The conditions were controlled as listed in Table 1 for the stability test. The results of the purities and the contents are listed in Table I-1, and the results of the crystal form tests are shown in FIGS. 4 to 6.

[2] = Tableting stability test (XRPD before and after tableting); type: physicochemical; conditions: manually tableted, 8 mm tablets, ground, FIG. 7
Source text: A small amount of Crystal Form I of Compound 1 hydrochloride monohydrate of Example 1 was taken and manually tableted to tablets with a diameter of 8 mm. The tablets were then gently ground. […] The XRPD patterns of the powders before and after the tableting of Crystal Form I were compared.

[3] = Metabolic experiments after oral (intragastric) administration to SD rats; type: in vivo; conditions: 10 mg/kg; for AUC(0-inf) / AUC(0-t) / MRT / Tmax / Cmax / half-life: rat, po
Description: 11.392 mg of Crystal Form I of Compound 1 hydrochloride was suspended in […] of 0.5% sodium carboxymethylcellulose, mixed to form a homogenous suspension, and then sonicated for 2 min to give a homogenous suspension having a concentration of 2 mg/mL (the suspension present was prepared on the day of administration, and stored for no more than 4 hours). Three SD rats were intragastrically administered at a dose of 10 mg/kg body weight, and blood analysis was performed at the set time points.

[4] = Test of dissolution rate in distilled water; type: physicochemical; conditions: 3 mg in 1 ml distilled water, shaken at 20-25° C. for 5 seconds
Description: 3 mg each of Crystal Form VII, Crystal Form I, and Crystal Form VI, were weighed, and put into three 1 ml plastic centrifuge tubes, respectively. To each tube was added 1 ml of distilled water and shaken at 20-25° C. for 5 seconds.

[5] = Active Pharmaceutical Ingredient, Initial
[6] = Illumination (4500 Lx ± 500 Lx), Day 5
[7] = Illumination (4500 Lx ± 500 Lx), Day 10
[8] = high temperature, high humidity and strong illumination, up to Day 10
[9] = SD (Sprague-Dawley), blood, SD rat, Rat 1
[10] = SD (Sprague-Dawley), blood, SD rat, Rat 2
[11] = SD (Sprague-Dawley), blood, SD rats, Average of three rats

For Cn1cc(-c2ccc(-c3ccc4ncc5c(c4c3)n([C@H]3CC[C@@H](O)CC3)c(=O)n5C)cn2)cn1 [Crystal Form I, 1-((1s,4s)-4-hydroxycyclohexyl)-3-methyl-8-(6-(1-methyl-1H-pyrazol-4-yl)pyridin-3-yl)-1H-imidazo[4,5-c]quinoline-2(3H)-one], the Content % ([1]; 25° C./95% RH, Day 5) was 100.86%, the Impurity % ([1]; 25° C./95% RH, Day 5) was 0.72% and the Purity % ([1]; 25° C./95% RH, Day 5) was 99.28%. It also gave a Content % ([1]; 25° C./95% RH, Day 10) of 99.61%, an Impurity % ([1]; 25° C./95% RH, Day 10) of 0.74% and a Purity % ([1]; 25° C./95% RH, Day 10) of 99.26%. For the same molecule, the Content % ([1]; 60° C., Day 5) was 99.62%, the Impurity % ([1]; 60° C., Day 5) was 0.73% and the Purity % ([1]; 60° C., Day 5) was 99.27%. The Content % ([1]; 60° C., Day 10) was 99.51%, the Impurity % ([1]; 60° C., Day 10) was 0.79% and the Purity % ([1]; 60° C., Day 10) was 99.21%. The Content % [1, 5] was 100.41%, the Impurity % [1, 5] was 0.74% and the Purity % [1, 5] was 99.26%. For the same molecule, the Content % [1, 6] was 99.84%, the Impurity % [1, 6] was 0.93% and the Purity % [1, 6] was 99.07%. The Content % [1, 7] was 99.50%, the Impurity % [1, 7] was 0.87% and the Purity % [1, 7] was 99.13%. The “crystal form (XRPD) after stability test” value ([1]; high temperature, high humidity and strong illumination (FIGS. 4 to 6)) was “remains unchanged”, the “fluctuation of the content” value [1, 8] was no more than 1% and the “fluctuation of the purity” value [1, 8] was no more than 0.2%. For the same molecule, the “effect of tableting process on crystal form (XRPD)” value [2] was “did not change”, the AUC(0-inf) [3, 9] was 247 µg·h/mL and the AUC(0-t) [3, 9] was 235 µg·h/mL. It also gave an MRT [3, 9] of 6.74 h, a Tmax [3, 9] of 2.8 h and a Cmax ([3]; SD (Sprague-Dawley), blood, SD rat, Rat 1, read-out: Cmax) of 19000 ng/mL. The AUC(0-inf) [3, 10] was 192 µg·h/mL, the AUC(0-t) [3, 10] was 183 µg·h/mL and the MRT [3, 10] was 7.13 h. It also gave a Tmax [3, 10] of 4 h, a Cmax ([3]; SD (Sprague-Dawley), blood, SD rat, Rat 2, read-out: Cmax) of 12100 ng/mL and a half-life ([3]; SD (Sprague-Dawley), blood, SD rat, Rat 2, read-out: t½ (converted)) of 5.4 h. For the same molecule, the half-life ([3]; SD (Sprague-Dawley), blood, SD rat, suspension in 0.5% sodium carboxymethylcellulose, Rat 1, read-out: t½ (converted)) was 5.28 h, the AUC(0-inf) [3, 11] was 201 µg·h/mL and the AUC(0-t) [3, 11] was 191 µg·h/mL. For the same molecule, the MRT [3, 11] was 6.84 h, the “AUC Extr” value ([3]; SD rat, Rat 1) was 4.72% and the AUC/D ([3]; SD rat, Rat 1) was 11758 ng·kg·h/mg/mL. The “AUC Extr” value ([3]; SD rat, Rat 2) was 4.70%, the AUC/D ([3]; SD rat, Rat 2) was 9171 ng·kg·h/mg/mL and the “AUC Extr” value ([3]; SD rat, Rat 3) was 5.96%. For the same molecule, the AUC/D ([3]; SD rat, Rat 3) was 7675 ng·kg·h/mg/mL, the “AUC Extr” value ([3]; SD rats, Average of three rats) was 5.13% and the AUC/D ([3]; SD rats, Average of three rats) was 9535 ng·kg·h/mg/mL. For the same molecule, the AUC(0-inf) ([3]; SD, plasma, SD rat, Rat 3) was 163 µg·h/mL, the AUC(0-t) ([3]; SD, plasma, SD rat, Rat 3) was 154 µg·h/mL and the MRT ([3]; SD, plasma, SD rat, Rat 3) was 6.65 h. It also gave a Tmax ([3]; SD, plasma, SD rat, Rat 3) of 2.5 h, a Cmax ([3]; SD, plasma, SD rat, Rat 3, read-out: Cmax) of 12700 ng/mL and a half-life ([3]; SD, plasma, SD rat, Rat 3, read-out: t½ (converted)) of 5.81 h. The Tmax ([3]; SD, plasma, SD rats, Average of three rats) was 3.1 h, the Cmax ([3]; SD, plasma, SD rats, Average of three rats, read-out: Cmax) was 14600 ng/mL and the half-life ([3]; SD, plasma, SD rats, Average of three rats, read-out: t½ (converted)) was 5.5 h. The AUC(0-t) ([3]; SD, plasma, SD rats, average value) was 191 µg·h/mL, the half-life ([3]; SD, plasma, SD rats, average value, read-out: half-life (converted)) was 5.5 h and the Cmax ([3]; SD, plasma, SD rats, average value, read-out: maximum plasma concentration (Cmax)) was 14600 ng/mL. The “time to dissolve completely” value [4] was 5 h and the “time to dissolve substantially” value [4] was 2 h.

With Cn1cc(-c2ccc(-c3ccc4ncc5c(c4c3)n([C@H]3CC[C@@H](O)CC3)c(=O)n5C)cn2)cn1 [Crystal Form VI, 1-((1s,4s)-4-hydroxycyclohexyl)-3-methyl-8-(6-(1-methyl-1H-pyrazol-4-yl)pyridin-3-yl)-1H-imidazo[4,5-c]quinoline-2(3H)-one] the “time to dissolve completely” value [4] was greater than 5 h.

For Cn1cc(-c2ccc(-c3ccc4ncc5c(c4c3)n([C@H]3CC[C@@H](O)CC3)c(=O)n5C)cn2)cn1 [Crystal Form VII, 1-((1s,4s)-4-hydroxycyclohexyl)-3-methyl-8-(6-(1-methyl-1H-pyrazol-4-yl)pyridin-3-yl)-1H-imidazo[4,5-c]quinoline-2(3H)-one], the “time to dissolve completely” value [4] was no more than 0.00278 h.
